Common to all, as to assay: growth of human tumour cells (NCI), 48 h
Assay [1] relates to SK-MEL-28 melanoma.
The subject of assay [2] is SK-MEL-2 melanoma.
For assay [3], the system named is U251 CNS.
Assay [4] has as its system MOLT-4 leukemia.
In assay [5] the test system is NCI/ADR-RES ovarian.
Assay [6] relates to UO-31 renal.
In assay [7] the test system is T-47D breast.
Assay [8] deals with NCI-H226 lung.
The subject of assay [9] is EKVX NSCLC.
The test system of assay [10] is MDA-MB-231 breast.
Assay [11] concerns RPMI-8226 leukemia.
The subject of assay [12] is SR leukemia.
Assay [13] relates to MDA-N.
Assay [14] has as its system HCT-116 colon.
The subject of assay [15] is HCT-15 colon.
For assay [16], the system named is SNB-75 CNS.
Assay [17] concerns SF-539 CNS.
Assay [18] deals with CCRF-CEM leukemia.

Each structure is given as a SMILES string.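 The compound was tested at five concentrations on cells cultured in 96-well plates, with a 48-hour exposure period. Definition used: TGI = concentration required for complete inhibition of growth.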

As to `CCCCCCCCCCCCCCCCOP(=O)(O)OCC(NC(C)=O)C(=O)O` (stereo unspecified), the TGI is above 100 µM in [1]; above 100 µM in [2]; 40.8 µM in assay [3]; 51.8 µM in assay [4]; above 100 µM in assay [5]; above 100 µM in assay [6]. Also, the TGI in assay [7] is above 100 µM; in [8], above 100 µM; in assay [9], above 100 µM; in [10] it was 93.2 µM; in [11] it was above 100 µM; in assay [12] it was above 100 µM. The TGI in [13] is above 100 µM; in assay [14], above 100 µM; in assay [15], 34.3 µM; in assay [16], 98.2 µM; in assay [17] it was above 100 µM.
In the case of `C#Cc1cc(Br)c(OC(=O)C(C)(C)C)c(-c2cc(C#C)cc(Br)c2OC(=O)C(C)(C)C)c1`, the TGI in [1], in assay [2], in assay [3], in assay [4], in assay [5] and in assay [7] was above 100 µM each time. In addition, the TGI is above 100 µM in [9]; above 100 µM in assay [10]; 46.4 µM in assay [11]; 36.1 µM in [18]; above 100 µM in [13]; above 100 µM in [14]. For the same molecule, the TGI in assay [15] and in assay [17] was above 100 µM each time.
`Cn1c2ccccc2c(=O)c2cccc(C(=O)NCC(=O)O)c21`: the TGI in assay [1], in [2], in [3], in assay [4], in assay [5] and in assay [6] was above 100 µM in each case. The TGI in assay [7], in assay [8], in assay [9], in [10], in [11] and in assay [12] was above 100 µM in each case. For the same molecule, the TGI in assay [13], in assay [14], in assay [15], in assay [16] and in assay [17] was above 100 µM throughout.
Take `COC(=O)[C@H]1COC(=O)N1`: the TGI in assay [1], in assay [2], in assay [3], in assay [4], in assay [5] and in assay [6] was above 100 µM in each case. Also, the TGI in [7], in [8], in [9], in [10], in assay [18] and in [13] was above 100 µM each time. The TGI in assay [14], in assay [15], in assay [16] and in assay [17] was above 100 µM each time.
Turning to `O=C1OC(C2(O)OC(=O)c3ccccc32)c2ccccc21` (stereo unspecified), the TGI in assay [1], in assay [2], in [3], in assay [4], in assay [5] and in [6] was above 100 µM each time. Also, the TGI in [7], in assay [8], in assay [9], in assay [10], in [11] and in assay [12] was above 100 µM throughout. Further, the TGI in assay [13], in assay [14], in [15], in assay [16] and in [17] was above 100 µM throughout.
`Oc1c(Br)cc(/C=C/c2cccc(/C=C/c3cc(Br)c(O)c(Br)c3)n2)cc1Br`: the TGI in assay [1] stood at 58.6 µM; in assay [2] it was 20.1 µM; in assay [3], 21.2 µM; in assay [4], 14.7 µM; in [5], 85.6 µM; in [6], 28.4 µM. In addition, the TGI was 31.4 µM in assay [7]; 34 µM in assay [9]; 49.4 µM in assay [10]; 27.5 µM in [11]; 18.9 µM in assay [12]; 39.6 µM in assay [13]. Also, the TGI in [14] amounted to 21 µM; in assay [15] it was 26.3 µM; in [16] it was 31.6 µM; in assay [17] it was 26.6 µM.
Consider `CCN(CC)C(=S)SC(C(=O)Nc1nnc(-c2ccccc2)o1)c1ccccc1` (stereo unspecified), for which the TGI was 54.6 µM in assay [1]; 46.7 µM in assay [2]; 61.4 µM in [3]; above 100 µM in assay [4]; 41.1 µM in assay [5]; 23.9 µM in assay [6]. In addition, the TGI in [7] is above 100 µM; in [8], 74.7 µM; in [9], 49.5 µM; in assay [10] it was above 100 µM; in assay [11], above 100 µM; in assay [12], 70.7 µM. For the same molecule, the TGI in assay [13] is 36.5 µM; in assay [14] it was 34.7 µM; in [15], 24.5 µM; in assay [16] it was above 100 µM; in assay [17], 65.9 µM.
Regarding `CC1(c2ccc(Cl)s2)CC(c2ccc(Cl)s2)=C(C#N)C(=C(C#N)C#N)N1` (stereo unspecified), the TGI is 50.5 µM in assay [1]; 47.2 µM in assay [2]; 33.2 µM in assay [3]; above 100 µM in [4]; 38.8 µM in assay [5]; 34.5 µM in assay [6]. The TGI in assay [7] is 46.7 µM; in assay [8], above 100 µM; in assay [9] it was 32.6 µM; in assay [10] it was 47.1 µM; in [11], above 100 µM; in [18], above 100 µM. Further, the TGI in assay [13] was determined as 49.5 µM; in assay [14], 34.2 µM; in assay [15], 35.4 µM; in assay [16] it was 38.6 µM; in assay [17], 68.7 µM.

The values above are taken from PubChem BioAssay (NCI).
